The subject of the series is Xenopus embryos. In words: Dorso-animal morpholino injection, phenotype scored at stage 35. It is filed as in vivo, Xenopus laevis. The following applies: FIG. 6 Panel D. The method, then: Xenopus embryo manipulations. Procedures for embryo manipulation, reverse transcription PCR and in situ hybridization were performed as previously described (Zhang et al., 2012, Cell, 149:1565-1577). The full length Xenopus laevis Tmem79 cDNA was used to make in situ sense and antisense probes.
mRNA and Morpholino injection. For animal cap assays, indicated mRNAs (Tmem79, 100 and 200 pg; Xwnt8, 10 pg; β-catenin 50 pg; Xnr1, 250 pg; BMP4, 100 pg) were injected into the animal pole at 4-cell stage, and animal caps were dissected at stage 9 (in the case of Xwnt8, Xnr1, BMP4) or at stage 8.5 and treated with recombinant proteins (bFGF, 100 ng/ml; hShh, 1.5 ng/mL) until stage 10 before RT-PCR. For Neural induction assay the MO (20 ng) for Tmem79, Usp8 or β-catenin was injected into the animal pole at 4-cell stage, and animal caps were dissected at stage 9 and treated with recombinant protein Noggin (500 ng/mL) until stage 18 before RT-PCR. To examine Tmem79 and Usp8 MOs specificity, […] of mRNA of Xenopus Tmem79, mouse Tmem79, Xenopus Usp8 or xmutUsp8 (Xenopus Usp8 mutated for mismatches with the MO) were injected with a control MO, Tmem79 MO or Usp8 MO (20 ng) into the animal pole at the 2-cell stage and cultured til stage 10 for Western blotting. To knockdown the endogenous xTmem79 or xUsp8, 20 ng of control MO, Tmem79 MO or Usp8 MO were injected into two dorso-animal blastomeres at the 8-cell stage and the phenotype was scored at stage 35. To rescue the Tmem79 MO phenotype, […] of mTmem 79, 20 ng of Usp8 MO or 10 ng of β-catenin MO was injected together with Tmem79 MO (20 ng). RT-PCR primers and Morpholinos. RT-PCT primer for Xenopus laevis Tmem 79: Forward, 5′-[…]-3′ (SEQ ID NO: 22); Reverse, 5′-[…]-3′ (SEQ ID NO: 23). The MO sequences: Tmem79.S MO, 5′-[…]-3′ (SEQ ID NO: 24); Tmem79.L MO, 5′-[…]-3′ (SEQ ID NO: 25); Usp8 MO, 5′-[…]-3′ ((SEQ ID NO: 26; Gene Tools, LLC). Phylogeny analysis and protein sequences. TMEM79 protein sequences were derived from full-length NCBI accessions and genomic sequences. Human (Homo sapiens): NP_115699.1 (SEQ ID NO: 27), Chimpanzee (Pan troglodytes): XP_001165258.1 (SEQ ID NO: 28), Rat (Rattus norvegicus): NP_001029068.1 (SEQ ID NO: 29), Mouse (Mus musculus): NP_077208.1 (SEQ ID NO: 30), Chicken (Gallus gallus): XP_024999333.1 (SEQ ID NO: 31), Frog (Xenopus laevis): XP_018089022.1 (SEQ ID NO: 32), Zebra fish (Danio rerio): XP_009290676.1 (SEQ ID NO: 33) and Coelacanth (Latimeria chalumnae): XP_014351966.1 (SEQ ID NO: 34). The Protein sequences encoded by mouse MAPEG family (Membrane-Associated Proteins in Eicosanoid and Glutathione metabolism, pfam01124) members protein sequences were derived from full-length NCBI accessions and genomic sequences. […]

Turning to “Usp8 MO: morpholino against Xenopus Usp8, SEQ ID NO: 26 (antisense GCTGCAAATTCTCCTCTCTTATCAA; all phosphorodiamidate morpholino (PMO); listed as Xenopus laevis)”, the “Enlarged Head” value is given as 93.2 % of embryos. For the setting “anterior deficiency”, the “Moderate Deficiency” value was 0.0 % of embryos and the “Severe Deficiency” value is 0.0 % of embryos. Besides, the Normal (dorso-animal injection) is recorded as 6.8 % of embryos.
